Test results reported in US10829520B2, “Beta-hairpin peptidomimetics” (POLYPHOR AG, priority 2015, dated 2020).
Where a SMILES comes first, the peptide text is derived from it. Bridges are numbered along the chain shown (N, C = ends). [ ]: non-standard residue; d: D form. Hyp = O=C(O)[C@@H]1C[C@@H](O)CN1; dDab = NCC[C@@H](N)C(=O)O; hCys = N[C@@H](CCS)C(=O)O; Dab = NCC[C@H](N)C(=O)O

Legend:
Format in all cases: cell-based
[1] = test system: Klebsiella pneumoniae SSI #3010; conditions: SSI #3010
Protocol: (§1) Lyophilized peptides were weighed on a Microbalance (Mettler MT5) and dissolved in sterile water to a final concentration of 1 mg/mL. Stock solutions were kept at +4° C., light protected.
(§2) The in vitro antimicrobial activities of the peptides were determined in 96-well plates (Greiner, polystyrene) by the standard CLSI broth microdilution method (Clinical and Laboratory Standards Institute 2014. Performance standards for antimicrobial susceptibility testing, 24th informational supplement. Approved standard CLSI M100-S24; Clinical and Laboratory Standards Institute, Wayne, Pa.). Inocula of the microorganisms were diluted into Mueller-Hinton II (MH-cation adjusted) broth and compared with a 0.5 McFarland standard to give appr. 10^6 colony forming units (CFU)/mL. Aliquots (90 μL) of inoculate were added to 10 μL of MH-II broth+P-80 (Polysorbate 80, 0.002% final concentration, v/v) containing the peptide in serial two-fold dilutions. The following microorganisms were used to determine antibiotic activity of the peptides: Escherichia coli ATCC 25922, Klebsiella pneumoniae SSI #3010^a), Acinetobacter baumannii DSM 30008, Pseudomonas aeruginosa ATCC 27853 and the clinical isolates Escherichia coli 926415^b), Klebsiella pneumoniae 968733^b) and Acinetobacter baumannii 872842^b). Antimicrobial activities of the peptides were expressed as the minimal inhibitory concentration (MIC) in μg/mL at which no visible growth was observed after 18-20 hours of incubation at 35° C. ^a) Obtained from Statens Serum Institut (SSI), Copenhagen, Denmark^b) Obtained from International Health Management Associates, Inc. (IHMA Europe Sàrl), Epalinges, Switzerland

[2] = test system: Escherichia coli ATCC 25922; conditions: ATCC 25922
Protocol: as §1, §2

[3] = test system: Pseudomonas aeruginosa ATCC 27853; conditions: ATCC 27853
Protocol: as §1, §2

[4] = test system: Acinetobacter baumannii DSM 30008; conditions: DSM 30008
Protocol: as §1, §2

[5] = test system: human red blood cells (hRBC); test: Hemolysis of human red blood cells; conditions: red cells of human, 1 h, 100 μg/mL
Protocol: as §1
The peptides were tested for their hemolytic activity against human red blood cells (hRBC). Fresh hRBC were washed three times with phosphate buffered saline (PBS) and centrifuged for 10 min at 2000×g. Compounds (100 μg/mL) were incubated with 20% hRBC (v/v) for 1 h at 37° C. and shaking at 300 rpm. The final erythrocyte concentration was approximately 0.9×10^9 cells/mL. A value of 0% and 100% cell lyses, respectively, was determined by incubation of hRBC in the presence of PBS containing 0.001% acetic acid and 2.5% Triton X-100 in H2O, respectively. The samples were centrifuged, the supernatants were 8-fold diluted in PBS buffer and the optical densities (OD) were measured at 540 nm. The 100% lyses value (OD540H2O) gave an OD540 of approximately 0.5-1.0.
Percent hemolysis was calculated as follows: (OD540peptide/OD540H2O)×100%.

SMILES | Klebsiella pneumoniae SSI #3010 MIC [1] | Escherichia coli ATCC 25922 MIC [2] | Pseudomonas aeruginosa ATCC 27853 MIC [3] | Acinetobacter baumannii DSM 30008 MIC [4] | Hemolysis at 100 μg/mL [5]
CC(C)C[C@@H]1NC(=O)[C@@H](CC(C)C)NC(=O)[C@H](CCN)NC(=O)[C@@H](NC(=O)[C@H](CCN)NC(=O)[C@@H](NC(=O)[C@H](CCN)NC(=O)CNC(=O)[C@@H]2CCSSC[C@H](NC(=O)[C@@H](N)Cc3c[nH]c4ccccc34)C(=O)N[C@@H](C(C)C)C(=O)N[C@@H](C)C(=O)N[C@@H](CO)C(=O)N3CCC[C@@H]3C(=O)N3CCC[C@H]3C(=O)N[C@@H](CC(C)C)C(=O)N[C@@H](CO)C(=O)N[C@@H](Cc3ccc(O)cc3)C(=O)N2)[C@@H](C)O)CCNC(=O)[C@H]([C@@H](C)O)NC(=O)[C@H](CCN)NC(=O)[C@H](CCN)NC1=O [Ex. 134] (H-WCVAS[dP]PLSY[hCys]G[Dab]T[Dab][Dab][Dab][dL]L[Dab][Dab]T; disulfide 2-11; lactam 16-C) | 0.25 µg/mL | 0.125 µg/mL | 1 µg/mL | 0.125 µg/mL | <1%
CC(C)C[C@@H]1NC(=O)[C@H](CCN)NC(=O)[C@@H](CCN)NC(=O)[C@H](CO)NC(=O)[C@@H](NC(=O)[C@@H](NC(=O)[C@H](CCN)NC(=O)[C@@H](N)Cc2c[nH]c3ccccc23)C(C)C)CSSC[C@@H](C(=O)N[C@@H](Cc2ccc(O)cc2)C(=O)N[C@@H](CCN)C(=O)NCC(=O)N[C@@H](CCN)C(=O)N[C@H](C(=O)N[C@@H](CCN)C(=O)N[C@H]2CCNC(=O)[C@H]([C@@H](C)O)NC(=O)[C@H](CCN)NC(=O)[C@H](CCN)NC(=O)[C@H](CC(C)C)NC(=O)[C@@H](CC(C)C)NC(=O)[C@H](CCN)NC2=O)[C@@H](C)O)NC1=O [Ex. 163] (H-W[Dab]VCS[dDab][Dab]LCY[Dab]G[Dab]T[Dab][Dab][Dab][dL]L[Dab][Dab]T; disulfide 4-9; lactam 16-C) | 2 µg/mL | 2 µg/mL | 2 µg/mL | 1 µg/mL | <1%
CC(C)C[C@@H]1NC(=O)[C@@H](CC(C)C)NC(=O)[C@H](CCN)NC(=O)[C@@H](NC(=O)[C@H](CCN)NC(=O)[C@@H](NC(=O)[C@H](CCN)NC(=O)CNC(=O)[C@H](CCN)NC(=O)[C@H](Cc2ccc(O)cc2)NC(=O)[C@@H]2CSSC[C@H](NC(=O)[C@@H](NC(=O)[C@H](CCN)NC(=O)[C@@H](N)Cc3c[nH]c4ccccc34)C(C)C)C(=O)N[C@@H](CO)C(=O)N[C@H](C)C(=O)N3C[C@H](O)C[C@H]3C(=O)N[C@@H](CC(C)C)C(=O)N2)[C@@H](C)O)CCNC(=O)[C@H]([C@@H](C)O)NC(=O)[C@H](CCN)NC(=O)[C@H](CCN)NC1=O [Ex. 164] (H-W[Dab]VCS[dA][Hyp]LCY[Dab]G[Dab]T[Dab][Dab][Dab][dL]L[Dab][Dab]T; disulfide 4-9; lactam 16-C) | 0.5 µg/mL | 0.0625 µg/mL | 0.5 µg/mL | 0.25 µg/mL | <1%
CC(C)C[C@@H]1NC(=O)[C@@H](CC(C)C)NC(=O)[C@H](CCN)NC(=O)[C@@H](NC(=O)[C@H](CCN)NC(=O)[C@@H](NC(=O)[C@H](CCN)NC(=O)CNC(=O)[C@H](CCN)NC(=O)[C@H](Cc2ccc(O)cc2)NC(=O)[C@@H]2CSSC[C@H](NC(=O)[C@H](Cc3ccc(O)cc3)NC(=O)[C@H](CCN)NC(=O)[C@@H](N)Cc3c[nH]c4ccccc34)C(=O)N[C@@H](CO)C(=O)N3CCC[C@@H]3C(=O)N3CCC[C@H]3C(=O)N[C@@H](CC(C)C)C(=O)N2)[C@@H](C)O)CCNC(=O)[C@H]([C@@H](C)O)NC(=O)[C@H](CCN)NC(=O)[C@H](CCN)NC1=O [Ex. 165] (H-W[Dab]YCS[dP]PLCY[Dab]G[Dab]T[Dab][Dab][Dab][dL]L[Dab][Dab]T; disulfide 4-9; lactam 16-C) | 1 µg/mL | 0.5 µg/mL | 1 µg/mL | 2 µg/mL | 1%
